Data taken from patent US20050119330A1, “Use of antiproliferative agents in the treatment and prevention of pulmonary proliferative vascular diseases” (priority 2003, published 2005).
Where “and” joins values, the source holds several entries; their conditions need not be identical. Equal entries are not always repeated.

Assays:
[1] = test system: pneumonectomized, monocrotaline-treated rats; assay: Chronic model of pulmonary arterial hypertension (monocrotaline four weeks after pneumonectomy), rescue treatment; type: in vivo
Protocol: Methods: Rats were treated as described in Example 1, except that monocrotaline was administered four weeks after pneumonectomy. Pulmonary hypertension developed at Week 8 and increased in severity until death at Week 13. […] Hemodynamic measurements were performed on control and treated rats in order to determine mean arterial pressures and pressures at the right ventricle.
A quantitative analysis of neointimal luminal obstruction on 25 consecutive small pulmonary arteries from each rat in Group N, PMV0w, PMV2w, PMS2w, PMS6w, and PMS13w was performed (FIGS. 10A-10D). Histological samples were prepared and stained using Elastin-van-Geison (EVG) stain, ×600. Vessels were assessed for neointimal proliferative lesions and scored: Grade 0 for no evidence of neointimal formation, Grade 1 for less than 50% luminal occlusion, Grade 2 for >50% luminal occlusion.

[2] = test system: pneumonectomized, monocrotaline-treated rats; assay: Acute model of pulmonary arterial hypertension (left pneumonectomy, monocrotaline on Day 7); type: in vivo, Sprague-Dawley rats; conditions: for right ventricular systolic pressure (RVSP): Day 35; for mean pulmonary arterial pressure (mPAP): measured Day 35; for vascular occlusion score (VOS), 0 to 2: 25 consecutive small pulmonary arteries per rat
Protocol: Methods: On Day, 0, thirty pathogen-free 13-week-old, male Sprague-Dawley rats (350-400 g) were intubated, anesthetized with halothane (0.5%), and then underwent left pneumonectomy via thoracotomy as described in Faul, J. L. et al. (2000) Am. J. Respir. Crit. Care Med. 162:2252-2258; and Nishimura, R. et al., (2001) Am. J. Respir. Crit. Care Med. 163:498-502. On Day 7, rats received a single subcutaneous injection in the right hind limb of the plant alkaloid monocrotaline (60 mg/kg; Sigma, St. Louis, Mo.). Rats that were not subjected to any treatment were also included in the study (“normal” or “N”).
Twenty-four rats received monocrotaline (60 mg/kg s.c.), seven days after pneumonectomy. […] Rats that were not subjected to any treatment were also included in the study (“normal” or “N”). Rats in the control group, PMV (n=6), received vehicle (V) by oral gavage every day, beginning on Day 5.
On Day 35, rats underwent pulmonary artery catheterization for measurements of mean pulmonary artery pressures and right ventricular systolic pressures. Mean arterial, mean pulmonary arterial and right ventricular systolic blood pressures (mPAP and RVSP, respectively) were measured as described by Faul et al. and Nishimura et al. After exsanguination, the right lung, right ventricle and left ventricle plus septum were collected for histology. The organs were weighed and preserved and the RV/LV&S ratios determined. Organs fixed in formalin were embedded in paraffin, cut in 3 micron sections and stained with hematoxylin and eosin, and with elastin-von Geison stain.
The severity of neointimal formation was scored on elastin-van Geison (EVG)-stained lung sections: the absence of neointimal formation equals 0; the presence of neointimal proliferation causing less than 50% luminal narrowing equals 1; luminal narrowing greater than 50% equals 2. Immunohistochemistry was performed on formalin-fixed, paraffin-embedded lung sections using antibodies to α-smooth-muscle actin (Dako, 1:30 dilution, linked to alkaline phosphatase), and CD31, a monoclonal antibody with specificity for endothelial cells lining the vascular lumen (Dako, 1:40 dilution, detected using avidin-biotin-peroxidase method). Samples of right lung were immediately placed in 2.5% paraformaldehyde and routinely processed for transmission electron microscopy. Reverse-transcription PCR was used to amplify portions of the rat endothelial nitric oxide synthase gene (eNOS, GenBank U02534) and actin B (GenBank V01217) from rat lung. Primer sequences for eNOS were: 5′-[…]-3′ (SEQ ID NO:1) and 5′-[…]-3′ (SEQ ID NO:2). Five micrograms of total lung RNA were reverse-transcribed and amplified by PCR as described in Aoki, Y., et al. (1997) Am. J. Physiol. 272:L272-284. Endothelial NOS protein (60 μg) was analyzed by Western immunoblotting as described in Zhao, G. et al. (2000) Am. J. Physiol. 279:L958-L966, using anti-eNOS primary antibody (Santa Cruz sc-8311).

[3] = test system: pneumonectomized, monocrotaline treated rats; conditions: Faul et al. 2000; Nishimura 2001; cited from earlier work
[4] = Group PMS2w: two weeks of treatment
[5] = Group PMS6w: 6 weeks of treatment
[6] = after 13 weeks of simvastatin treatment

Row | Structure (SMILES) | mean pulmonary arterial pressure (mPAP) ([1]; Group PMS2w: 2 mg/kg/day for two weeks from Week 11) [mm Hg] | right ventricular systolic pressure (RVSP) [1, 4] [mmHg] | vascular occlusion score (VOS), 0 to 2 [1, 4] | mean pulmonary arterial pressure (mPAP) ([1]; Group PMS6w: 2 mg/kg/day for 6 weeks from Week 11) [mm Hg] | right ventricular systolic pressure (RVSP) [1, 5] [mmHg] | vascular occlusion score (VOS), 0 to 2 [1, 5] | vascular occlusion score (VOS), 0 to 2 ([1]; Group PMS13w: 13 weeks of treatment) | mean pulmonary arterial pressure (mPAP) [1, 6] [mm Hg] | right ventricular systolic pressure (RVSP) [1, 6] [mmHg] | survival ([1]; simvastatin 2 mg/kg/day oral gavage from Week 11, no mortality up to Week 23, vehicle 0% survival at Week 15) [%] | right ventricular systolic pressure (RVSP) ([2]; Group PMS5-14: 2 mg/kg/day oral gavage Days 5-14) [mm Hg] | mean pulmonary arterial pressure (mPAP) ([2]; Group PMS5-14: simvastatin 2 mg/kg/day oral gavage Days 5-14) [mm Hg] | vascular occlusion score (VOS), 0 to 2 ([2]; Group PMS5-14) | right ventricular systolic pressure (RVSP) ([2]; Group PMS5-35: 40 mg/kg/day oral gavage Days 5-35) [mm Hg] | mean pulmonary arterial pressure (mPAP) ([2]; Group PMS5-35: simvastatin 40 mg/kg/day oral gavage Days 5-35) | vascular occlusion score (VOS), 0 to 2 ([2]; Group PMS5-35) | right ventricular systolic pressure (RVSP) ([2]; Group PMS15-35: 40 mg/kg/day oral gavage Days 15-35) [mm Hg] | mean pulmonary arterial pressure (mPAP) ([2]; Group PMS15-35: simvastatin 40 mg/kg/day oral gavage Days 15-35) [mm Hg] | vascular occlusion score (VOS), 0 to 2 ([2]; Group PMS15-35) | development of pulmonary arterial hypertension and neointimal formation [3]
1 | CCC(C)(C)C(=O)O[C@H]1C[C@@H](C)C=C2C=C[C@H](C)[C@H](CC[C@@H]3C[C@@H](O)CC(=O)O3)[C@H]21 [simvastatin] | 36±2 | 53±7 | 1.34 | 24±3 | 34±3 | 0.83 | 0.65 | 22±3 | 30±3 | 100 | 66±12 | 44±4 | 0.78±0.40 | 37±4 | 27±3 mm Hg and 27 mm Hg | 1.5 and 0.59±0.46 | 54±10 | 38±3 | 0.93±0.38 | 
2 | CC(C)[C@]12O[C@H]1[C@@H]1O[C@]13[C@]1(O[C@H]1C[C@H]1C4=C(CC[C@@]13C)C(=O)OC4)[C@@H]2O [triptolide] |  |  |  |  |  |  |  |  |  |  |  |  |  |  |  |  |  |  |  | could inhibit the development of pulmonary arterial hypertension and neointimal formation
